Here are results for 4 molecules from ChEMBL document CHEMBL3396954, “Synthesis and in vitro biological evaluation of dihydroartemisinyl-chalcone esters” (Eur J Med Chem, 2015).

As usually defined, the IC50 is the concentration that inhibits the measured activity by half.

Structures are written as SMILES.

Test system in the first data set: not listed separately
Put plainly: Cytotoxicity against human WI38 cells assessed as inhibition of proliferation after 24 hrs by SRB assay. In kind it is cell-based. Conditions: WI-38, 24 h. A general note: The SRB assay estimates cell density from bound dye.
Take `COc1ccc(C(=O)/C=C/c2ccc(C(=O)OC3O[C@@H]4O[C@]5(C)CC[C@H]6[C@H](C)CC[C@@H]([C@H]3C)[C@@]46OO5)cc2)cc1[N+](=O)[O-]` (stereo partly drawn): the IC50 was over 100 µM.

`CCN(CC)CCCC(C)Nc1ccnc2cc(Cl)ccc12` (stereo not drawn) [CHLOROQUINE]: the IC50 stood at 3.63 µM.

For the molecule `COc1ccc(C(=O)/C=C/c2ccc(C(=O)OC3O[C@@H]4O[C@]5(C)CC[C@H]6[C@H](C)CC[C@@H]([C@H]3C)[C@@]46OO5)cc2)c(OC)c1` (stereo partly drawn), the concentration for half-maximal inhibition (IC50) is over 100 µM.

As for `O=C(O)c1ccc(/C=C/C(=O)c2ccccc2)cc1`, the half-maximal inhibitory concentration (IC50) is over 100 µM.

The next data set deals with UACC-62. In words: Selectivity index, ratio of IC50 for human WI38 cells to IC50 for human UACC62 cells. Type of data set: functional.
Details: not given
With `COc1ccc(C(=O)/C=C/c2ccc(C(=O)OC3O[C@@H]4O[C@]5(C)CC[C@H]6[C@H](C)CC[C@@H]([C@H]3C)[C@@]46OO5)cc2)cc1[N+](=O)[O-]` (stereo partly drawn), the “Ratio IC50” value is listed as over 13.

In the case of `COc1ccc(C(=O)/C=C/c2ccc(C(=O)OC3O[C@@H]4O[C@]5(C)CC[C@H]6[C@H](C)CC[C@@H]([C@H]3C)[C@@]46OO5)cc2)c(OC)c1` (stereo partly drawn), the “Ratio IC50” value was over 23.

Turning to `O=C(O)c1ccc(/C=C/C(=O)c2ccccc2)cc1`, the “Ratio IC50” value is listed as over 7.

Test system in a further data set: not listed separately
In words: Selectivity index, ratio of IC50 for human WI38 cells to IC50 for chloroquine-sensitive Plasmodium falciparum 3D7. In kind it is toxicity, cell-based, WI-38. Conditions: read-out: Ratio IC50.
For `COc1ccc(C(=O)/C=C/c2ccc(C(=O)OC3O[C@@H]4O[C@]5(C)CC[C@H]6[C@H](C)CC[C@@H]([C@H]3C)[C@@]46OO5)cc2)cc1[N+](=O)[O-]` (stereo partly drawn), the selectivity ratio was over 17000.

`COc1ccc(C(=O)/C=C/c2ccc(C(=O)OC3O[C@@H]4O[C@]5(C)CC[C@H]6[C@H](C)CC[C@@H]([C@H]3C)[C@@]46OO5)cc2)c(OC)c1` (stereo partly drawn): the selectivity ratio was over 33100.

As for `O=C(O)c1ccc(/C=C/C(=O)c2ccccc2)cc1`, the selectivity ratio was over 3.4.

Test system in the next data set: not listed separately
Put plainly: Resistance index, ratio of IC50 for chloroquine-resistant Plasmodium falciparum W2 to IC50 for chloroquine-sensitive Plasmodium falciparum 3D7. Type of data set: functional.
Details: not given
For the molecule `COc1ccc(C(=O)/C=C/c2ccc(C(=O)OC3O[C@@H]4O[C@]5(C)CC[C@H]6[C@H](C)CC[C@@H]([C@H]3C)[C@@]46OO5)cc2)cc1[N+](=O)[O-]` (stereo partly drawn), the Ratio IC50 worked out at 1.

`COc1ccc(C(=O)/C=C/c2ccc(C(=O)OC3O[C@@H]4O[C@]5(C)CC[C@H]6[C@H](C)CC[C@@H]([C@H]3C)[C@@]46OO5)cc2)c(OC)c1` (stereo partly drawn): the Ratio IC50 was 0.7.

Turning to `O=C(O)c1ccc(/C=C/C(=O)c2ccccc2)cc1`, the Ratio IC50 is 1.

Test system in the next data set: not listed separately
In words: Selectivity index, ratio of IC50 for chloroquine-resistant Plasmodium falciparum W2 to IC50 for human MCF7 cells.
Details: not given
`COc1ccc(C(=O)/C=C/c2ccc(C(=O)OC3O[C@@H]4O[C@]5(C)CC[C@H]6[C@H](C)CC[C@@H]([C@H]3C)[C@@]46OO5)cc2)cc1[N+](=O)[O-]` (stereo partly drawn): the “Ratio IC50” value is recorded as over 512.

Turning to `COc1ccc(C(=O)/C=C/c2ccc(C(=O)OC3O[C@@H]4O[C@]5(C)CC[C@H]6[C@H](C)CC[C@@H]([C@H]3C)[C@@]46OO5)cc2)c(OC)c1` (stereo partly drawn), the “Ratio IC50” value was over 500.

On to `O=C(O)c1ccc(/C=C/C(=O)c2ccccc2)cc1`, for which the “Ratio IC50” value is recorded as over 0.4.

Another data set has as its system MCF7. Put plainly: Anticancer activity against human MCF7 cells assessed as inhibition of cell growth after 24 hrs by SRB assay. In kind it is functional, cell-based. Particulars: MCF7, 24 h.
With `COc1ccc(C(=O)/C=C/c2ccc(C(=O)OC3O[C@@H]4O[C@]5(C)CC[C@H]6[C@H](C)CC[C@@H]([C@H]3C)[C@@]46OO5)cc2)cc1[N+](=O)[O-]` (stereo partly drawn), the IC50 was 2.9 µM.

As to `COc1ccc(C(=O)/C=C/c2ccc(C(=O)OC3O[C@@H]4O[C@]5(C)CC[C@H]6[C@H](C)CC[C@@H]([C@H]3C)[C@@]46OO5)cc2)c(OC)c1` (stereo partly drawn), the IC50 is 1.02 µM.

Take `O=C(O)c1ccc(/C=C/C(=O)c2ccccc2)cc1`: the IC50 came to 11.9 µM.

The subject of the next data set is WI-38. Put plainly: Selectivity index, ratio of IC50 for human WI38 cells to IC50 for human TK10 cells. Type of data set: functional.
Details: not given
As for `COc1ccc(C(=O)/C=C/c2ccc(C(=O)OC3O[C@@H]4O[C@]5(C)CC[C@H]6[C@H](C)CC[C@@H]([C@H]3C)[C@@]46OO5)cc2)cc1[N+](=O)[O-]` (stereo partly drawn), the “Ratio IC50” value is reported as over 6.

Consider `COc1ccc(C(=O)/C=C/c2ccc(C(=O)OC3O[C@@H]4O[C@]5(C)CC[C@H]6[C@H](C)CC[C@@H]([C@H]3C)[C@@]46OO5)cc2)c(OC)c1` (stereo partly drawn), for which the “Ratio IC50” value is over 5.

With `O=C(O)c1ccc(/C=C/C(=O)c2ccccc2)cc1`, the “Ratio IC50” value is over 3.

Test system in the next data set: not listed separately
Put plainly: Selectivity index, ratio of IC50 for chloroquine-resistant Plasmodium falciparum W2 to IC50 for human UACC62 cells. Set-up: species or system UACC-62.
Details: not given
For `COc1ccc(C(=O)/C=C/c2ccc(C(=O)OC3O[C@@H]4O[C@]5(C)CC[C@H]6[C@H](C)CC[C@@H]([C@H]3C)[C@@]46OO5)cc2)cc1[N+](=O)[O-]` (stereo partly drawn), the “Ratio IC50” value was over 1340.

As for `COc1ccc(C(=O)/C=C/c2ccc(C(=O)OC3O[C@@H]4O[C@]5(C)CC[C@H]6[C@H](C)CC[C@@H]([C@H]3C)[C@@]46OO5)cc2)c(OC)c1` (stereo partly drawn), the “Ratio IC50” value is given as over 2123.

`O=C(O)c1ccc(/C=C/C(=O)c2ccccc2)cc1`: the “Ratio IC50” value was over 0.5.

For the next data set, the system named is TK-10. Put plainly: Anticancer activity against human TK10 cells assessed as inhibition of cell growth after 24 hrs by SRB assay. In kind it is functional, cell-based. Particulars: TK-10, 24 h.
Consider `COc1ccc(C(=O)/C=C/c2ccc(C(=O)OC3O[C@@H]4O[C@]5(C)CC[C@H]6[C@H](C)CC[C@@H]([C@H]3C)[C@@]46OO5)cc2)cc1[N+](=O)[O-]` (stereo partly drawn), for which the IC50 turned out to be 17 µM.

For the molecule `COc1ccc(C(=O)/C=C/c2ccc(C(=O)OC3O[C@@H]4O[C@]5(C)CC[C@H]6[C@H](C)CC[C@@H]([C@H]3C)[C@@]46OO5)cc2)c(OC)c1` (stereo partly drawn), the IC50 was found to be 22 µM.

With `O=C(O)c1ccc(/C=C/C(=O)c2ccccc2)cc1`, the IC50 turned out to be 29.8 µM.

Test system in another data set: not listed separately
Put plainly: Anticancer activity against human UACC62 cells assessed as inhibition of cell growth after 24 hrs by SRB assay. Particulars: UACC-62, 24 h. Type of data set: functional, cell-based.
Turning to `COc1ccc(C(=O)/C=C/c2ccc(C(=O)OC3O[C@@H]4O[C@]5(C)CC[C@H]6[C@H](C)CC[C@@H]([C@H]3C)[C@@]46OO5)cc2)cc1[N+](=O)[O-]` (stereo partly drawn), the IC50 was determined as 7.58 µM.

For `COc1ccc(C(=O)/C=C/c2ccc(C(=O)OC3O[C@@H]4O[C@]5(C)CC[C@H]6[C@H](C)CC[C@@H]([C@H]3C)[C@@]46OO5)cc2)c(OC)c1` (stereo partly drawn), the IC50 is 4.33 µM.

On to `O=C(O)c1ccc(/C=C/C(=O)c2ccccc2)cc1`, for which the IC50 turned out to be 13.9 µM.

The next data set has as its system MCF7. Put plainly: Selectivity index, ratio of IC50 for human WI38 cells to IC50 for human MCF7 cells.
Details: not given
In kind it is functional.
For `COc1ccc(C(=O)/C=C/c2ccc(C(=O)OC3O[C@@H]4O[C@]5(C)CC[C@H]6[C@H](C)CC[C@@H]([C@H]3C)[C@@]46OO5)cc2)cc1[N+](=O)[O-]` (stereo partly drawn), the “Ratio IC50” value is listed as over 34.

As to `COc1ccc(C(=O)/C=C/c2ccc(C(=O)OC3O[C@@H]4O[C@]5(C)CC[C@H]6[C@H](C)CC[C@@H]([C@H]3C)[C@@]46OO5)cc2)c(OC)c1` (stereo partly drawn), the “Ratio IC50” value is over 100.

As to `O=C(O)c1ccc(/C=C/C(=O)c2ccccc2)cc1`, the “Ratio IC50” value was over 8.

The test system of the next data set is Plasmodium falciparum. In words: Antimalarial activity against chloroquine-resistant Plasmodium falciparum W2 assessed as inhibition of parasite proliferation after 96 hrs by SYBR Green I-based fluorescence method. Particulars: W2, 96 h. In kind it is functional, organism-based.
For the molecule `COc1ccc(C(=O)/C=C/c2ccc(C(=O)OC3O[C@@H]4O[C@]5(C)CC[C@H]6[C@H](C)CC[C@@H]([C@H]3C)[C@@]46OO5)cc2)cc1[N+](=O)[O-]` (stereo partly drawn), the IC50 turned out to be 0.00566 µM.

As to `COc1ccc(C(=O)/C=C/c2ccc(C(=O)OC3O[C@@H]4O[C@]5(C)CC[C@H]6[C@H](C)CC[C@@H]([C@H]3C)[C@@]46OO5)cc2)c(OC)c1` (stereo partly drawn), the IC50 amounted to 0.00204 µM.

For `O=C(O)c1ccc(/C=C/C(=O)c2ccccc2)cc1`, the IC50 was determined as 0.0308 µM.

Another data set relates to Plasmodium falciparum. In words: Antimalarial activity against chloroquine-sensitive Plasmodium falciparum 3D7 assessed as inhibition of parasite proliferation after 96 hrs by SYBR Green I-based fluorescence method. In kind it is functional, organism-based. Conditions: 3D7, 96 h.
`COc1ccc(C(=O)/C=C/c2ccc(C(=O)OC3O[C@@H]4O[C@]5(C)CC[C@H]6[C@H](C)CC[C@@H]([C@H]3C)[C@@]46OO5)cc2)cc1[N+](=O)[O-]` (stereo partly drawn): the IC50 came out at 0.00587 µM.

With `COc1ccc(C(=O)/C=C/c2ccc(C(=O)OC3O[C@@H]4O[C@]5(C)CC[C@H]6[C@H](C)CC[C@@H]([C@H]3C)[C@@]46OO5)cc2)c(OC)c1` (stereo partly drawn), the IC50 came out at 0.00302 µM.

Consider `O=C(O)c1ccc(/C=C/C(=O)c2ccccc2)cc1`, for which the 50% inhibitory concentration (IC50) amounted to 0.0295 µM.

Test system in the next data set: not listed separately
Put plainly: Selectivity index, ratio of IC50 for chloroquine-resistant Plasmodium falciparum W2 to IC50 for human TK10 cells. Set-up: species or system TK-10.
Details: not given
With `COc1ccc(C(=O)/C=C/c2ccc(C(=O)OC3O[C@@H]4O[C@]5(C)CC[C@H]6[C@H](C)CC[C@@H]([C@H]3C)[C@@]46OO5)cc2)cc1[N+](=O)[O-]` (stereo partly drawn), the “Ratio IC50” value is over 3010.

Regarding `COc1ccc(C(=O)/C=C/c2ccc(C(=O)OC3O[C@@H]4O[C@]5(C)CC[C@H]6[C@H](C)CC[C@@H]([C@H]3C)[C@@]46OO5)cc2)c(OC)c1` (stereo partly drawn), the “Ratio IC50” value is over 10799.

`O=C(O)c1ccc(/C=C/C(=O)c2ccccc2)cc1`: the “Ratio IC50” value was over 1.
